In PubChem BioAssay (NCI):
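Test compounds were applied to cells in 96-well plates for 48 hours at 5 doses. TGI denotes the concentration required for complete inhibition of growth.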

Columns and labels:
Assay in all cases: inhibition of tumour cell growth, NCI panel, 48 h
NCI-H23 lung = system: NCI-H23 lung
COLO 205 colon = system: COLO 205 colon
TK-10 renal = system: TK-10 renal
SNB-19 CNS = system: SNB-19 CNS
A498 renal = system: A498 renal
KM20L2 colon = system: KM20L2 colon
U251 CNS = system: U251 CNS
CCRF-CEM leukemia = system: CCRF-CEM leukemia
DMS 273 small cell lung = system: DMS 273 small cell lung
SK-MEL-5 melanoma = system: SK-MEL-5 melanoma
SK-OV-3 ovarian = system: SK-OV-3 ovarian
KM12 colon = system: KM12 colon
CAKI-1 renal = system: CAKI-1 renal
HOP-18 NSCLC = system: HOP-18 NSCLC
SNB-75 CNS = system: SNB-75 CNS
OVCAR-8 ovarian = system: OVCAR-8 ovarian
HCT-116 colon = system: HCT-116 colon
HL-60(TB) leukemia = system: HL-60(TB) leukemia
HOP-62 NSCLC = system: HOP-62 NSCLC
MOLT-4 leukemia = system: MOLT-4 leukemia
LXFL 529 NSCLC = system: LXFL 529 NSCLC
DLD-1 colon = system: DLD-1 colon
A549 NSCLC = system: A549 NSCLC
HCC-2998 colon = system: HCC-2998 colon
M19-MEL melanoma = system: M19-MEL melanoma
NCI-H460 lung = system: NCI-H460 lung
HOP-92 NSCLC = system: HOP-92 NSCLC
HCT-15 colon = system: HCT-15 colon
SK-MEL-28 melanoma = system: SK-MEL-28 melanoma
RXF 393 renal = system: RXF 393 renal
SR leukemia = system: SR leukemia
SNB-78 CNS = system: SNB-78 CNS
ACHN renal = system: ACHN renal
UACC-257 melanoma = system: UACC-257 melanoma
OVCAR-5 ovarian = system: OVCAR-5 ovarian
SF-268 CNS = system: SF-268 CNS
OVCAR-3 ovarian = system: OVCAR-3 ovarian
RXF-631 renal = system: RXF-631 renal
SF-295 CNS = system: SF-295 CNS
HT29 colon = system: HT29 colon
SW-620 colon = system: SW-620 colon
MALME-3M melanoma = system: MALME-3M melanoma
IGROV1 ovarian = system: IGROV1 ovarian
M14 melanoma = system: M14 melanoma
OVCAR-4 ovarian = system: OVCAR-4 ovarian
NCI-H226 lung = system: NCI-H226 lung
UO-31 renal = system: UO-31 renal
RPMI-8226 leukemia = system: RPMI-8226 leukemia
LOX IMVI melanoma = system: LOX IMVI melanoma
DMS 114 small cell lung = system: DMS 114 small cell lung
786-0 renal = system: 786-0 renal
SN12C renal = system: SN12C renal
SF-539 CNS = system: SF-539 CNS
UACC-62 melanoma = system: UACC-62 melanoma
EKVX NSCLC = system: EKVX NSCLC
K-562 leukemia = system: K-562 leukemia
SK-MEL-2 melanoma = system: SK-MEL-2 melanoma
XF 498 CNS = system: XF 498 CNS
NCI-H522 lung = system: NCI-H522 lung

Cc1noc(/N=C2\C=C(Nc3onc(C)c3C)C(=O)c3ccccc32)c1C was tested, and the TGI (NCI-H23 lung) was over 100 µM, the TGI (COLO 205 colon) was over 100 µM and the TGI (TK-10 renal) was over 100 µM. For the same compound, the TGI (SNB-19 CNS) was over 100 µM, the TGI (A498 renal) was over 100 µM and the TGI (KM20L2 colon) was over 100 µM. For the same compound, the TGI (U251 CNS) was over 100 µM, the TGI (CCRF-CEM leukemia) was over 100 µM and the TGI (DMS 273 small cell lung) was over 100 µM. For the same compound, the TGI (SK-MEL-5 melanoma) was over 100 µM, the TGI (SK-OV-3 ovarian) was over 100 µM and the TGI (KM12 colon) was over 100 µM. The TGI (CAKI-1 renal) was over 100 µM, the TGI (HOP-18 NSCLC) was over 100 µM and the TGI (SNB-75 CNS) was over 100 µM. It also gave a TGI (OVCAR-8 ovarian) of over 100 µM, a TGI (HCT-116 colon) of over 100 µM and a TGI (HL-60(TB) leukemia) of over 100 µM. It also gave a TGI (HOP-62 NSCLC) of over 100 µM, a TGI (MOLT-4 leukemia) of over 100 µM and a TGI (LXFL 529 NSCLC) of over 100 µM. It also gave a TGI (DLD-1 colon) of over 100 µM, a TGI (A549 NSCLC) of over 100 µM and a TGI (HCC-2998 colon) of over 100 µM. The TGI (M19-MEL melanoma) was 17.1 µM, the TGI (NCI-H460 lung) was over 100 µM and the TGI (HOP-92 NSCLC) was over 100 µM. The TGI (HCT-15 colon) was over 100 µM, the TGI (SK-MEL-28 melanoma) was over 100 µM and the TGI (RXF 393 renal) was over 100 µM. For the same compound, the TGI (SR leukemia) was over 100 µM, the TGI (SNB-78 CNS) was over 100 µM and the TGI (ACHN renal) was over 100 µM. For the same compound, the TGI (UACC-257 melanoma) was over 100 µM, the TGI (OVCAR-5 ovarian) was over 100 µM and the TGI (SF-268 CNS) was over 100 µM. The TGI (OVCAR-3 ovarian) was 83 µM, the TGI (RXF-631 renal) was over 100 µM and the TGI (SF-295 CNS) was over 100 µM. The TGI (HT29 colon) was over 100 µM, the TGI (SW-620 colon) was over 100 µM and the TGI (MALME-3M melanoma) was over 100 µM. The TGI (IGROV1 ovarian) was over 100 µM, the TGI (M14 melanoma) was over 100 µM and the TGI (OVCAR-4 ovarian) was over 100 µM. For the same compound, the TGI (NCI-H226 lung) was over 100 µM, the TGI (UO-31 renal) was over 100 µM and the TGI (RPMI-8226 leukemia) was over 100 µM. For the same compound, the TGI (LOX IMVI melanoma) was over 100 µM, the TGI (DMS 114 small cell lung) was over 100 µM and the TGI (786-0 renal) was over 100 µM. It also gave a TGI (SN12C renal) of over 100 µM, a TGI (SF-539 CNS) of over 100 µM and a TGI (UACC-62 melanoma) of over 100 µM. It also gave a TGI (EKVX NSCLC) of over 100 µM, a TGI (K-562 leukemia) of over 100 µM and a TGI (SK-MEL-2 melanoma) of over 100 µM. The TGI (XF 498 CNS) was over 100 µM.
N#CC(C(=O)CCCC(=O)Nc1ccc(Cl)cc1Cl)c1ccc(Cl)cc1 (centres undefined) gave a TGI (NCI-H23 lung) of over 100 µM, a TGI (COLO 205 colon) of over 100 µM and a TGI (TK-10 renal) of over 100 µM. For the same compound, the TGI (SNB-19 CNS) was over 100 µM, the TGI (KM20L2 colon) was over 100 µM and the TGI (DMS 273 small cell lung) was over 100 µM. It also gave a TGI (SK-OV-3 ovarian) of over 100 µM, a TGI (KM12 colon) of over 100 µM and a TGI (CAKI-1 renal) of over 100 µM. It also gave a TGI (HOP-18 NSCLC) of over 100 µM, a TGI (SNB-75 CNS) of over 100 µM and a TGI (OVCAR-8 ovarian) of over 100 µM. The TGI (HCT-116 colon) was over 100 µM, the TGI (HL-60(TB) leukemia) was over 100 µM and the TGI (HOP-62 NSCLC) was over 100 µM. The TGI (MOLT-4 leukemia) was over 100 µM, the TGI (LXFL 529 NSCLC) was over 100 µM and the TGI (DLD-1 colon) was over 100 µM. It also gave a TGI (A549 NSCLC) of over 100 µM, a TGI (HCC-2998 colon) of over 100 µM and a TGI (NCI-H460 lung) of over 100 µM. The TGI (HOP-92 NSCLC) was over 100 µM, the TGI (HCT-15 colon) was over 100 µM and the TGI (SK-MEL-28 melanoma) was over 100 µM. It also gave a TGI (SR leukemia) of over 100 µM, a TGI (SNB-78 CNS) of over 100 µM and a TGI (ACHN renal) of over 100 µM. It also gave a TGI (UACC-257 melanoma) of over 100 µM, a TGI (OVCAR-5 ovarian) of over 100 µM and a TGI (SF-268 CNS) of over 100 µM. It also gave a TGI (OVCAR-3 ovarian) of over 100 µM, a TGI (RXF-631 renal) of over 100 µM and a TGI (SF-295 CNS) of over 100 µM. For the same compound, the TGI (HT29 colon) was over 100 µM, the TGI (SW-620 colon) was over 100 µM and the TGI (MALME-3M melanoma) was over 100 µM. The TGI (IGROV1 ovarian) was over 100 µM, the TGI (M14 melanoma) was over 100 µM and the TGI (OVCAR-4 ovarian) was over 100 µM. The TGI (NCI-H522 lung) was over 100 µM, the TGI (NCI-H226 lung) was over 100 µM and the TGI (UO-31 renal) was over 100 µM. It also gave a TGI (RPMI-8226 leukemia) of over 100 µM, a TGI (LOX IMVI melanoma) of over 100 µM and a TGI (786-0 renal) of over 100 µM. The TGI (SN12C renal) was over 100 µM, the TGI (SF-539 CNS) was over 100 µM and the TGI (UACC-62 melanoma) was over 100 µM. The TGI (K-562 leukemia) was over 100 µM, the TGI (SK-MEL-2 melanoma) was over 100 µM and the TGI (XF 498 CNS) was over 100 µM.
